Patent publication US20150105252A1, “SUBSTITUTED PYRAZOLES AS HERBICIDES” (E I DU PONT DE NEMOURS AND COMPANY, priority 2013, published 2015)

Experiments:
[1] = system: chickweed; experiment: Test D preemergence; assay type: in vivo, Stellaria media; conditions: Preemergence, scale 0 to 100
Procedure, shortened: (§1)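 Seeds are planted in silt loam and treated preemergence, while parallel plantings in a peat moss/vermiculite medium with starter nutrients receive postemergence sprays at the 1- to 4-leaf stage. All formulations use a non-phytotoxic solvent mixture with surfactant. Plants are kept in a controlled growth environment and rated visually after 14–21 days.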

[2] = system: bromegrass, downy; experiment: Test D postemergence; assay type: in vivo, Bromus tectorum; conditions: scale 0 to 100
Procedure, shortened: as §1

[3] = system: blackgrass; experiment: Test D postemergence; assay type: in vivo, Alopecurus myosuroides; conditions: scale 0 to 100
Procedure, shortened: as §1

[4] = system: bluegrass; experiment: Test D postemergence; assay type: in vivo, Poa annua; conditions: scale 0 to 100
Procedure, shortened: as §1

[5] = system: galium; experiment: Test D postemergence; assay type: in vivo, Galium aparine; conditions: scale 0 to 100
Procedure, shortened: as §1

[6] = system: oilseed rape; experiment: Test D preemergence; assay type: in vivo, Brassica napus; conditions: Preemergence, scale 0 to 100
Procedure, shortened: as §1

[7] = system: oilseed rape; experiment: Test D postemergence; assay type: in vivo, Brassica napus; conditions: scale 0 to 100
Procedure, shortened: as §1

[8] = system: field poppy; experiment: Test D postemergence; assay type: in vivo, Papaver rhoeas; conditions: scale 0 to 100
Procedure, shortened: as §1

[9] = system: mustard, wild; experiment: Test D preemergence; assay type: in vivo, Sinapis arvensis; conditions: Preemergence, scale 0 to 100
Procedure, shortened: as §1

[10] = system: oat, wild; experiment: Test D preemergence; assay type: in vivo, Avena fatua; conditions: Preemergence, scale 0 to 100
Procedure, shortened: as §1

[11] = system: blackgrass; experiment: Test D preemergence; assay type: in vivo, Alopecurus myosuroides; conditions: Preemergence, scale 0 to 100
Procedure, shortened: as §1

[12] = system: field poppy; experiment: Test D preemergence; assay type: in vivo, Papaver rhoeas; conditions: Preemergence, scale 0 to 100
Procedure, shortened: as §1

[13] = system: ryegrass, Italian; experiment: Test D preemergence; assay type: in vivo, Lolium multiflorum; conditions: Preemergence, scale 0 to 100
Procedure, shortened: as §1

[14] = system: galium; experiment: Test D preemergence; assay type: in vivo, Galium aparine; conditions: Preemergence, scale 0 to 100
Procedure, shortened: as §1

[15] = system: bluegrass; experiment: Test D preemergence; assay type: in vivo, Poa annua; conditions: Preemergence, scale 0 to 100
Procedure, shortened: as §1

[16] = system: foxtail, green; experiment: Test D postemergence; assay type: in vivo, Setaria viridis; conditions: scale 0 to 100
Procedure, shortened: as §1

[17] = system: chickweed; experiment: Test D postemergence; assay type: in vivo, Stellaria media; conditions: scale 0 to 100
Procedure, shortened: as §1

[18] = system: windgrass; experiment: Test D postemergence; assay type: in vivo, Apera spica-venti; conditions: scale 0 to 100
Procedure, shortened: as §1

[19] = system: wheat, spring; experiment: Test D postemergence; assay type: in vivo, Triticum aestivum; conditions: scale 0 to 100
Procedure, shortened: as §1

[20] = system: wheat, winter; experiment: Test D postemergence; assay type: in vivo, Triticum aestivum; conditions: scale 0 to 100
Procedure, shortened: as §1

CCc1cc(C(=O)NCC(F)(F)F)nn1Cc1ccnc(SC(F)(F)F)c1 [Compound 214]
Plant response rating, Chickweed ([1]; 31 g ai/ha): 90
Plant response rating, Chickweed ([1]; 62 g ai/ha): 75
Plant response rating, Chickweed ([1]; 125 g ai/ha): 100
Plant response rating, Chickweed ([1]; 250 g ai/ha): 100
Bromegrass, Downy plant response rating ([2]; Postemergence, 31 g ai/ha): 15
Bromegrass, Downy plant response rating ([2]; Postemergence, 125 g ai/ha): 20
Bromegrass, Downy plant response rating ([2]; Postemergence, 250 g ai/ha): 20
Bromegrass, Downy plant response rating ([2]; postemergence, 62 g ai/ha): 15
Blackgrass plant response rating ([3]; Postemergence, 31 g ai/ha): 15
Blackgrass plant response rating ([3]; Postemergence, 125 g ai/ha): 20
Blackgrass plant response rating ([3]; Postemergence, 250 g ai/ha): 70
Blackgrass plant response rating ([3]; postemergence, 62 g ai/ha): 15
Bluegrass plant response rating ([4]; Postemergence, 31 g ai/ha): 15
Bluegrass plant response rating ([4]; Postemergence, 125 g ai/ha): 15
Bluegrass plant response rating ([4]; Postemergence, 250 g ai/ha): 20
Bluegrass plant response rating ([4]; postemergence, 62 g ai/ha): 15
Galium plant response rating ([5]; Postemergence, 31 g ai/ha): 80
Galium plant response rating ([5]; Postemergence, 125 g ai/ha): 80
Galium plant response rating ([5]; Postemergence, 250 g ai/ha): 100
Galium plant response rating ([5]; postemergence, 62 g ai/ha): 80
Plant response rating, Oilseed Rape ([6]; 62 g ai/ha): 65
Plant response rating, Oilseed Rape ([6]; 125 g ai/ha): 100
Plant response rating, Oilseed Rape ([6]; 250 g ai/ha): 100
Oilseed Rape plant response rating ([7]; Postemergence, 31 g ai/ha): 65
Oilseed Rape plant response rating ([7]; Postemergence, 125 g ai/ha): 75
Oilseed Rape plant response rating ([7]; Postemergence, 250 g ai/ha): 100
Oilseed Rape plant response rating ([7]; postemergence, 62 g ai/ha): 65
Field Poppy plant response rating ([8]; Postemergence, 31 g ai/ha): 70
Field Poppy plant response rating ([8]; Postemergence, 125 g ai/ha): 70
Field Poppy plant response rating ([8]; Postemergence, 250 g ai/ha): 80
Field Poppy plant response rating ([8]; postemergence, 62 g ai/ha): 70
Plant response rating, Mustard, Wild ([9]; 62 g ai/ha): 100
Plant response rating, Mustard, Wild ([9]; 125 g ai/ha): 100
Plant response rating, Mustard, Wild ([9]; 250 g ai/ha): 100
Plant response rating, Oat, Wild ([10]; 62 g ai/ha): 20
Plant response rating, Oat, Wild ([10]; 125 g ai/ha): 70
Plant response rating, Oat, Wild ([10]; 250 g ai/ha): 95
Plant response rating, Blackgrass ([11]; 31 g ai/ha): 35
Plant response rating, Blackgrass ([11]; 62 g ai/ha): 75
Plant response rating, Blackgrass ([11]; 125 g ai/ha): 90
Plant response rating, Blackgrass ([11]; 250 g ai/ha): 100
Plant response rating, Field Poppy ([12]; 62 g ai/ha): 100
Plant response rating, Field Poppy ([12]; 125 g ai/ha): 100
Plant response rating, Field Poppy ([12]; 250 g ai/ha): 100
Plant response rating, Ryegrass, Italian ([13]; 62 g ai/ha): 55
Plant response rating, Ryegrass, Italian ([13]; 125 g ai/ha): 70
Plant response rating, Ryegrass, Italian ([13]; 250 g ai/ha): 90
Plant response rating, Galium ([14]; 62 g ai/ha): 85
Plant response rating, Galium ([14]; 125 g ai/ha): 100
Plant response rating, Galium ([14]; 250 g ai/ha): 100
Plant response rating, Bluegrass ([15]; 31 g ai/ha): 40
Plant response rating, Bluegrass ([15]; 62 g ai/ha): 65
Plant response rating, Bluegrass ([15]; 125 g ai/ha): 85
Plant response rating, Bluegrass ([15]; 250 g ai/ha): 100
Foxtail, Green plant response rating ([16]; Postemergence, 31 g ai/ha): 15
Foxtail, Green plant response rating ([16]; Postemergence, 125 g ai/ha): 35
Foxtail, Green plant response rating ([16]; Postemergence, 250 g ai/ha): 60
Foxtail, Green plant response rating ([16]; postemergence, 62 g ai/ha): 15
Chickweed plant response rating ([17]; Postemergence, 31 g ai/ha): 65
Chickweed plant response rating ([17]; Postemergence, 125 g ai/ha): 70
Chickweed plant response rating ([17]; Postemergence, 250 g ai/ha): 70
Chickweed plant response rating ([17]; postemergence, 62 g ai/ha): 65
Windgrass plant response rating ([18]; Postemergence, 31 g ai/ha): 20
Windgrass plant response rating ([18]; Postemergence, 125 g ai/ha): 30
Windgrass plant response rating ([18]; Postemergence, 250 g ai/ha): 40
Windgrass plant response rating ([18]; postemergence, 62 g ai/ha): 20
Wheat, Spring plant response rating ([19]; Postemergence, 31 g ai/ha): 15
Wheat, Spring plant response rating ([19]; Postemergence, 125 g ai/ha): 15
Wheat, Spring plant response rating ([19]; Postemergence, 250 g ai/ha): 20
Wheat, Spring plant response rating ([19]; postemergence, 62 g ai/ha): 15
Wheat, Winter plant response rating ([20]; Postemergence, 31 g ai/ha): 15
Wheat, Winter plant response rating ([20]; Postemergence, 125 g ai/ha): 20
Wheat, Winter plant response rating ([20]; Postemergence, 250 g ai/ha): 40
Wheat, Winter plant response rating ([20]; postemergence, 62 g ai/ha): 15
